Source: ChEMBL document CHEMBL2417364, “Acetylated dammarane-type bisdesmosides from Combretum inflatum” (J Nat Prod, 2013)

Assays:
[1] = system: Escherichia coli; assay: Inhibition of biofilm formation in Escherichia coli UTI89 after 72 hrs by crystal violet staining; format: functional, organism-based; conditions: UTI89, 72 h
[2] = system: Staphylococcus aureus; assay: Antibacterial activity against methicillin-resistant Staphylococcus aureus clinical isolate 108 at 16 ug/ml after 24 hrs by broth microdilution method; format: functional
[3] = system: NCI-H460; assay: Cytotoxicity against human NCI-H460 cells after 72 hrs; format: functional, cell-based; conditions: NCI-H460, 72 h

SMILES	IC50 [1]	Activity [2]	IC50 [3]
CC(=O)O[C@@H]1[C@H](O[C@@H]2O[C@H](C)[C@H](O)[C@H](O)[C@H]2O)C[C@]2(C)[C@H]3[C@H](O[C@@H]4O[C@H](C)[C@H](O)[C@H](O)[C@H]4O)C[C@@H]4[C@@H]([C@](C)(O)CCCC(C)(C)O)CC[C@@]4(C)[C@]3(C)CC[C@H]2C1(C)C	≥ 30 µg/mL	–	–
CC(=O)O[C@@H]1[C@H](O[C@@H]2O[C@H](C)[C@@H](O)[C@H](O)[C@H]2O)C[C@]2(C)[C@H]3[C@H](O[C@@H]4O[C@H](C)[C@H](O)[C@H](O)[C@H]4O)C[C@@H]4[C@@H]([C@](C)(O)CCCC(C)(C)O)CC[C@@]4(C)[C@]3(C)CC[C@H]2C1(C)C	≥ 30 µg/mL	–	–
CC(=O)O[C@@H]1[C@H](O[C@@H]2O[C@H](C)[C@H](O)[C@H](O)[C@H]2O)C[C@]2(C)[C@H]3[C@H](O[C@@H]4O[C@H](C)[C@H](O)[C@H](O)[C@H]4O)C[C@@H]4[C@@H](/C(C)=C/CCC(C)(C)O)CC[C@@]4(C)[C@]3(C)CC[C@H]2C1(C)C	≥ 30 µg/mL	71%	–
CC(=O)O[C@@H]1[C@H](O[C@@H]2O[C@H](C)[C@@H](O)[C@H](O)[C@H]2O)C[C@]2(C)[C@H]3[C@H](O[C@@H]4O[C@H](C)[C@H](O)[C@H](O)[C@H]4O)C[C@@H]4[C@@H](/C(C)=C/CCC(C)(C)O)CC[C@@]4(C)[C@]3(C)CC[C@H]2C1(C)C	≥ 30 µg/mL	64%	–
CC(=O)O[C@@H]1[C@H](O[C@@H]2O[C@H](C)[C@H](O)[C@H](O)[C@H]2O)C[C@]2(C)[C@H]3[C@H](O[C@@H]4O[C@H](C)[C@H](O)[C@H](O)[C@H]4O)C[C@@H]4[C@@H]([C@](C)(O)CCC=C(C)C)CC[C@@]4(C)[C@]3(C)CC[C@H]2C1(C)C	≥ 30 µg/mL	45%	–
CC(=O)O[C@@H]1[C@H](O[C@@H]2O[C@H](C)[C@@H](O)[C@H](O)[C@H]2O)C[C@]2(C)[C@H]3[C@H](O[C@@H]4O[C@H](C)[C@H](O)[C@H](O)[C@H]4O)C[C@@H]4[C@@H]([C@](C)(O)CCC=C(C)C)CC[C@@]4(C)[C@]3(C)CC[C@H]2C1(C)C	≥ 30 µg/mL	51%	–
CC(=O)O[C@@H]1[C@H](O[C@@H]2O[C@H](C)[C@H](O)[C@H](O)[C@H]2O)C[C@]2(C)[C@H]3[C@H](O[C@@H]4O[C@H](C)[C@H](O)[C@H](O)[C@H]4O)C[C@@H]4[C@@H]([C@@](C)(O)CCC=C(C)C)CC[C@@]4(C)[C@]3(C)CC[C@H]2C1(C)C	≥ 30 µg/mL	49%	3.9 µM
